{
  "source": "patent US10000765B2",
  "about": "“Gene encoding cytochrome P450, and use thereof” (NATIONAL INSTITUTE OF AGROBIOLOGICAL SCIENCES, priority 2011, dated 2018)",
  "key": {"[1]": {"test_system": "Arabidopsis thaliana K32-1-1, K32-3-1 and K32-5-1", "experiment": "Growth test in BS-containing medium, Arabidopsis transformed with Kasalath-derived CYP72A32", "assay_type": "in vivo", "conditions": "day 10 from onset of cultivation, compared to NT", "excerpt": "In this Example, Agrobacterium as prepared in Example 4 was used to introduce HptII::35Spro::Kasalath CYP72A31::Tnos vector plasmid (pCAMBIA1390-KasCYP72A31), HptII::35Spro::Kasalath CYP72A32::Tnos vector plasmid (pCAMBIA1390-KasCYP72A32), or HptII::35Spro::Kasalath CYP72A33::Tnos vector plasmid (pCAMBIA1390-KasCYP72A33) into Arabidopsis thaliana (ecotype: Col-0) by using a floral-dip method. The floral-dip method followed a standard method. […] K31-4-2 and K31-6-5 were selected as fixed lines derived from pCAMBIA1390-KasCYP72A31; K32-1-1, K32-3-1, and K32-5-1 were selected as fixed lines derived from pCAMBIA1390-KasCYP72A32; and K33-1-3 and K33-2-4 were selected as fixed lines derived from pCAMBIA1390-KasCYP72A33. Their seeds were seeded in a medium containing each concentration of BS, and cultivated for 10 days. FIGS. 16A and 16B illustrate the results.\nNext, 15 seeds for each of non-transformed Arabidopsis thaliana (NT which is denoted by “Col-0” in FIGS. 18A-18C) and transformed plant bodies (K32-1-1 which is denoted by “K32oe-1-1” in FIGS. 18A-18C, K32-3-1 which is denoted by “K32oe-3-1” in FIGS. 18A-18C, and K32-5-1 which is denoted by “K32oe-5-” in FIGS. 18A-18C) were cultivated on a medium containing each concentration of BS. […]"}, "[2]": {"test_system": "Arabidopsis thaliana (K31-4-2) transformed with a Kasalath-derived CYP72A31 gene", "experiment": "Drug sensitivity test on drug-containing MS medium, Arabidopsis thaliana transformed with Kasalath-derived CYP72A31 gene", "assay_type": "in vivo", "conditions": "for Ratio of sensitivity: K31-4-2 / NT", "description": "A bag of mixed salts for Murashige-Skoog (MS) medium (manufactured by Wako Pure Chemical Industries, Ltd.) 20 g of sucrose, 3 mg of thiamin hydrochloride, 5 mg of nicotinic acid, and 0.5 mg of pyridoxine hydrochloride were dissolved in distilled water, and filled up to 1 L with distilled water. After pH adjustment to 5.8 to 6.3 with 1 M KOH, 3 g of Gelrite was added to the solution, and dissolved using a microwave. After that, the mixture was autoclaved to prepare a sterile MS medium. A test drug was added to this sterile MS medium so as to make a final concentration of 1.3, 4.1, 12, 37, 110, or 330 nM. Arabidopsis thaliana from a sterilized seed was seeded in the drug-containing MS medium, and cultivated at 22° C. for 12 to 14 days in a continuous light period.\nNote that the drugs used in this Example were bispyribac-sodium, pyrithiobac-sodium, pyriminobac, bensulfuron-methyl, penoxsulam, pyrazosulfuron-ethyl, amidosulfuron, imazosulfuron, nicosulfuron, and propyrisulfuron."}, "[3]": {"test_system": "Nipponbare and Kasalath calluses with CYP72A31 overexpression construct", "experiment": "Callus growth test on BS-containing medium, Kasalath CYP72A31 overexpression construct", "assay_type": "cell-based, Oryza sativa", "conditions": "medium containing 0.25, 0.5, or 0.75 μM BS", "excerpt": "According to Example 5, an HptII::35Spro::Kasalath CYP72A31::Tnos vector plasmid (pCAMBIA1390-KasCYP72A31, a kasCYP72A31 overexpression construct) or, as a control, an HptII::35Spro::sGFP::Tnos vector plasmid (pCAMBIA1390-sGFP, an sGFP overexpression construct) was introduced into a rice variety (cultivars: Nipponbare and Kasalath) by using an Agrobacterium method. Transformed calluses selected with 50 ppm hygromycin were isolated, and transplanted onto a bispyribac-sodium (BS)-containing medium to examine callus growth."}, "[4]": {"test_system": "Rice (Nipponbare) calluses transformed with pCAMBIA1302-sGFP", "experiment": "Redifferentiation and rooting test, control rice callus transformed with pCAMBIA1302-sGFP", "assay_type": "cell-based, Oryza sativa", "description": "After selective culturing, the callus was transplanted onto a rice redifferentiation medium RE-III (containing 50 ppm hygromycin or 0.25 μM bispyribac sodium), cultured at 27 degree C. under 16L/8D conditions, and led to redifferentiate. The callus was plated after 2 weeks. At additional about 2 to 3 weeks, a redifferentiated, transformed rice (T0) was obtained. Once a differentiated shoot and/or root had appeared, the rice was transplanted onto a hormone-free (HF) medium (containing 50 ppm hygromycin or 0.25 μM bispyribac sodium).\nAccording to Example 5, an HptII::35Spro::Kasalath CYP72A31::Tnos vector plasmid (pCAMBIA1390-KasCYP72A31, a kasCYP72A31 overexpression construct) or, as controls, an HptII::35Spro::sGFP::Tnos vector plasmid (pCAMBIA1302-sGFP, an sGFP overexpression construct) or an OsALS (W548L/S627I)::OsAct-1pro::sGFP::Tnos vector plasmid (pSTARA-sGFP, a BS-resistant construct) was introduced into a rice variety (a cultivar: Nipponbare) by using an Agrobacterium method. According to a schedule designated in FIG. 12A), transformed calluses were selected with 50 ppm hygromycin. […] Of all the calluses, 43 calluses were transplanted onto a redifferentiation medium containing 0.25 μM BS.\nRice (Nipponbare) calluses transformed with a pCAMBIA1390-KasCYP72A31 construct in Example 8 were obtained by 50 ppm hygromycin selection. […]"}},
  "data": [
    {"smiles": "COc1cc(OC)nc(Oc2cccc(Oc3nc(OC)cc(OC)n3)c2C(=O)O)n1", "note": "[BS, bispyribac sodium]", "values": [
      {"measurement": "BS sensitivity (germinated seeds, emerging of true leaves, fresh weight of above-ground part)", "setting": "[1]", "value": "BS sensitivity equivalent to NT"},
      {"measurement": "Resistance of transformed Arabidopsis thaliana to the drug", "setting": "[2]; K31-4-2, Tables 2 and 3, FIGS. 20 to 24", "value": "exhibited resistance"},
      {"measurement": "Rate of emerging of true leaf (%)", "setting": "[2]; K31-4-2, drug 1.3 nM, day 12 after seeding", "value": 89, "unit": "%"},
      {"measurement": "Rate of emerging of true leaf (%)", "setting": "[2]; K31-4-2, drug 1.3 nM, day 14 after seeding", "value": 100, "unit": "%"},
      {"measurement": "Rate of emerging of true leaf (%)", "setting": "[2]; K31-4-2, drug 4.1 nM, day 12 after seeding", "value": 100, "unit": "%"},
      {"measurement": "Rate of emerging of true leaf (%)", "setting": "[2]; K31-4-2, drug 4.1 nM, day 14 after seeding", "value": 100, "unit": "%"},
      {"measurement": "Rate of emerging of true leaf (%)", "setting": "[2]; K31-4-2, drug 12 nM, day 12 after seeding", "value": 89, "unit": "%"},
      {"measurement": "Rate of emerging of true leaf (%)", "setting": "[2]; K31-4-2, drug 12 nM, day 14 after seeding", "value": 100, "unit": "%"},
      {"measurement": "Rate of emerging of true leaf (%)", "setting": "[2]; K31-4-2, drug 37 nM, day 12 after seeding", "value": 100, "unit": "%"},
      {"measurement": "Rate of emerging of true leaf (%)", "setting": "[2]; K31-4-2, drug 37 nM, day 14 after seeding", "value": 100, "unit": "%"},
      {"measurement": "Rate of emerging of true leaf (%)", "setting": "[2]; K31-4-2, drug 110 nM, day 12 after seeding", "value": 100, "unit": "%"},
      {"measurement": "Rate of emerging of true leaf (%)", "setting": "[2]; K31-4-2, drug 110 nM, day 14 after seeding", "value": 100, "unit": "%"},
      {"measurement": "Rate of emerging of true leaf (%)", "setting": "[2]; K31-4-2, drug 330 nM, day 12 after seeding", "value": 78, "unit": "%"},
      {"measurement": "Rate of emerging of true leaf (%)", "setting": "[2]; K31-4-2, drug 330 nM, day 14 after seeding", "value": 80, "unit": "%"},
      {"measurement": "Ratio of sensitivity", "setting": "[2]; maximum drug concentration for 40% or more emerging of true leaves, day 12", "value": ">28"},
      {"measurement": "Ratio of sensitivity", "setting": "[2]; maximum drug concentration for 80% or more emerging of true leaves, day 14", "value": ">80"},
      {"measurement": "Callus growth", "setting": "[3]", "value": "demonstrated to grow"},
      {"measurement": "Rooting and survival of plant bodies", "setting": "[4]; hormone-free medium containing 1 μM BS", "value": "killed the plant bodies"},
      {"measurement": "Redifferentiation", "setting": "[4]; redifferentiation medium containing 0.25 μM BS", "value": "found not to include those redifferentiated"}
    ]}
  ]
}
